From PubChem BioAssay AID493064 (Broad Institute, 2011) come the findings set out here.

Where “and” joins values, the source holds several entries; their conditions need not be identical. Equal values may be shown once. Inconclusive results are not listed. Calls of active or inactive are those of the source. No rule for the calls is given here. Bounds are passed on as bounds.

The subject of one experiment is C. albicans CaCi-8 + fluconazole, Alamar Blue growth, 48 h. As to the kind of experiment: PubChem AID 493064.
Conditions: not given
The term AC50 denotes the concentration giving half of the maximal activity seen. Take `CC1CCN(C(=O)Cn2c3ccccc3c3nc4n(c(=O)c32)CCS4)CC1`: the AC50 was 8.88 µM.

For `COC(=O)Cn1nc(-c2ccccc2)c2ccccc21`, the AC50 is 3.13 µM.

With `N#Cc1ccc(N2CCN(C(=O)c3ccc(Cl)cc3)CC2)nc1`, the AC50 is > 26 µM (inactive).

As for `O=C(O)c1nn(Cc2ccc(Cl)cc2)c2ccccc12`, the AC50 was > 26 µM (inactive).

As for `O=C(Cn1nc(-c2ccccc2)c2cc(Cl)ccc21)N1CCOCC1`, the AC50 is > 26 µM (inactive).

As to `COc1ccc(C(=O)N2CCN(c3ccccn3)CC2)cc1`, the AC50 was 7.53 µM.

For `O=C(c1ccc(Cl)cc1)N1CCN(c2nc3ccccc3s2)CC1`, the half-maximal activity concentration (AC50) is 4.94 µM.

System in the next experiment: not listed separately
As to the kind of experiment: PubChem AID 493064. The settings on record: C. albicans CaCi-8 + fluconazole, Alamar Blue growth, 48 h; at 26 µM (top of the series).
As to `Cc1ccnc(N2CCN(C(=O)c3ccc(Cl)cc3)CC2)c1`, the activity change, negative = inhibition was -6.71% (inactive).

Consider `O=C(Cn1nc(C(=O)N2CCCCC2)c2ccccc21)N1CCOCC1`, for which the activity change, negative = inhibition is -1.16% (inactive).

As to `O=C(O)Cn1nc(-c2ccccc2)c2ccccc21`, the activity change, negative = inhibition was -17.8% (inactive).

In the case of `CCCCC(=O)N1CCN(c2ccccn2)CC1`, the activity change, negative = inhibition was -12.5% (inactive).

As for `O=C(Cn1nc(-c2ccccc2)c2ccccc21)NCc1ccc(Cl)cc1`, the activity change, negative = inhibition was -6.6% (inactive).

In the case of `O=C(Cn1c2ccc(F)cc2c2nc3n(c(=O)c21)CCS3)N1CCCCC1`, the activity change, negative = inhibition was 8.36% (inactive).

`O=C(c1cccc(Cl)c1)N1CCN(c2ccccn2)CC1`: the activity change, negative = inhibition was -1.33% (inactive).

`COC(=O)Cn1c(-c2ccccc2)nc2ccccc21`: the activity change, negative = inhibition was -13.8% (inactive).

Regarding `CCOC(=O)c1c2ccccc2nn1Cc1ccc(Cl)cc1`, the activity change, negative = inhibition is 5.94% (inactive).

With `O=C(c1ccc(Cl)cc1)N1CCN(c2cccc(C(F)(F)F)n2)CC1`, the activity change, negative = inhibition is -8.21% (inactive).

`CCN(CC)C(=O)Cn1c2ccccc2c2nc3n(c(=O)c21)CCS3`: the activity change, negative = inhibition was 8.8% (inactive) and 7.89% (inactive).

Consider `COC(=O)Cn1nc(C)c2ccccc21`, for which the activity change, negative = inhibition was -17.2% (inactive).

For `CC(C)C(=O)N1CCN(c2ccccn2)CC1`, the activity change, negative = inhibition was -2.77% (inactive).
